Laboratory results taken from ChEMBL document CHEMBL1201862, “PubChem BioAssay data set” (2004).
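How tested: cells in 96-well plates exposed to compound for 48 hours at five concentrations. Abbreviation: GI50, concentration required for 50% inhibition of growth.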 The source made the active and inactive calls. Cut-off read from the data, not from the text of the source: active = GI50 up to about 1.1 µM and inactive = higher.

How the values were obtained:
Assay in all cases: DTP human tumour cell line panel, 48 h
LOX IMVI = test system: LOX IMVI
SN12C = test system: SN12C
SR = test system: SR
K562 = test system: K562
DMS-114 = test system: DMS-114
HCT-15 = test system: HCT-15
HOP-92 = test system: HOP-92
SK-MEL-2 = test system: SK-MEL-2
CAKI-1 = test system: CAKI-1
OVCAR-5 = test system: OVCAR-5
NCI-H226 = test system: NCI-H226
RXF 393 = test system: RXF 393
UACC-62 = test system: UACC-62
KM12 = test system: KM12
TK-10 = test system: TK-10
RXF 631 = test system: RXF 631
SNB-19 = test system: SNB-19
HCT-116 = test system: HCT-116
OVCAR-3 = test system: OVCAR-3
SNB-78 = test system: SNB-78
NCI-H23 = test system: NCI-H23
MOLT-4 = test system: MOLT-4
KM-20L2 = test system: KM-20L2
SK-MEL-28 = test system: SK-MEL-28
XF498 = test system: XF498
M19-MEL = test system: M19-MEL
CCRF-CEM = test system: CCRF-CEM
OVCAR-4 = test system: OVCAR-4
DLD-1 = test system: DLD-1
RPMI-8226 = test system: RPMI-8226
ACHN = test system: ACHN
SF-268 = test system: SF-268
SF-539 = test system: SF-539
IGROV-1 = test system: IGROV-1
EKVX = test system: EKVX
U-251 = test system: U-251
HOP-18 = test system: HOP-18
SK-MEL-5 = test system: SK-MEL-5
UO-31 = test system: UO-31
A549 = test system: A549
COLO 205 = test system: COLO 205
SF-295 = test system: SF-295
SK-OV-3 = test system: SK-OV-3
LXFL 529 = test system: LXFL 529
HOP-62 = test system: HOP-62
OVCAR-8 = test system: OVCAR-8
NCI-H522 = test system: NCI-H522
DMS-273 = test system: DMS-273

Measured: GI50

COc1cccc(NC(=O)N/C(=C/c2ccc(N(CCC#N)CCC#N)cc2)NC(=O)c2cc([N+](=O)[O-])ccc2Cl)c1
inactive: LOX IMVI 71.4 µM | SN12C > 100 µM | SR 10.1 µM | K562 > 100 µM | DMS-114 37.2 µM | HOP-92 > 100 µM | SK-MEL-2 > 100 µM | CAKI-1 > 100 µM | OVCAR-5 > 100 µM | NCI-H226 > 100 µM | RXF 393 > 100 µM | UACC-62 89.3 µM | KM12 > 100 µM | TK-10 > 100 µM | RXF 631 > 100 µM | SNB-19 > 100 µM | HCT-116 > 100 µM | OVCAR-3 > 100 µM | SNB-78 > 100 µM | NCI-H23 > 100 µM | MOLT-4 35 µM | KM-20L2 > 100 µM | SK-MEL-28 64 µM | XF498 > 100 µM | M19-MEL > 100 µM | CCRF-CEM 77.8 µM | OVCAR-4 > 100 µM | DLD-1 89.5 µM | RPMI-8226 51.6 µM | ACHN > 100 µM | SF-268 > 100 µM | SF-539 > 100 µM | IGROV-1 > 100 µM | EKVX > 100 µM | U-251 > 100 µM | HOP-18 > 100 µM | SK-MEL-5 > 100 µM | UO-31 > 100 µM | A549 > 100 µM | COLO 205 > 100 µM | SF-295 > 100 µM | SK-OV-3 > 100 µM | LXFL 529 > 100 µM | HOP-62 > 100 µM | OVCAR-8 > 100 µM | NCI-H522 26.5 µM | DMS-273 > 100 µM
95.5 µM: HCT-15
